Test results reported in patent US12350259B2, “Methods of treating migraine” (Allergan Pharmaceuticals International Limited, priority 2021, dated 2025).
Like-named read-outs stand apart in the source and are kept apart here. Marks after values point to notes of the source that are not given here.

What was measured:
[1] = Atogepant-itraconazole interaction study: safety and tolerability; format: in vivo, human
Description: The primary objective of this study was to assess the effects of multiple dose itraconazole on the pharmacokinetics of a single dose of atogepant. The primary endpoints were PK parameters of atogepant derived from plasma concentrations. The secondary objectives of the study were to assess the safety and tolerability of atogepant and itraconazole given alone and in combination, and to establish the correlation between concentrations of atogepant in dried blood sample (DBS) (obtained via finger stick) and plasma. The secondary endpoints included AEs, clinical laboratory parameters, vital signs, ECG, and physical examination, and correlation of concentrations of atogepant in DBS and plasma. Subjects who satisfied the inclusion and exclusion criteria were assigned to a single fixed-treatment sequence in which they received Treatment A followed by Treatment B; there was a 7-day washout period between treatments. • Treatment A: Single oral 60 mg dose of atogepant (tablet) under fasted conditions on Day 1 • Treatment B • Days 8-14: Itraconazole 200 mg (tablet) orally once daily under fed conditions. • Day 15: Itraconazole 200 mg coadministered with atogepant 60 mg (tablet) under fasted conditions. • Days 16 to 17: Itraconazole 200 mg (tablet) once daily under fed conditions.

[2] = Hepatic impairment study: atogepant plasma protein binding; format: in vitro ADME, human; details: human, plasma, oral, 60 mg, 2 hr post dose, read-out: plasma protein binding, percent bound (converted)
Description: (§1) Protein binding blood samples were collected from all participants starting on Day 1 at 0 hour (predose) and at 2 hours post dose. The pre-dose samples collected prior to dosing for each participant were externally spiked with known quantities of atogepant. Percent bound atogepant was determined in the 2-hour sample using direct measurement of the atogepant concentrations in the blood sample.

[3] = system: plasma protein; assay: as above; format: in vitro ADME, human; details: for fraction unbound: human, 0 hr (predose, spiked sample), read-out: plasma protein binding, percent bound (converted); for plasma protein binding, percent bound: 2 hr post dose
Description: as §1

[4] = Atogepant-topiramate interaction study: safety and tolerability; format: in vivo, human
[5] = Clinical pharmacokinetics of atogepant after oral administration (summary); format: in vivo, human
[6] = Excretion after single oral dose of 14C-atogepant; format: in vivo, human; details: single oral dose of 50 mg 14C-atogepant, healthy male subjects
Description: The parent compound (atogepant) and a glucuronide conjugate metabolite (M23) were the most prevalent circulating components in human plasma. […] Following a single oral dose of 50 mg ^14C-atogepant to healthy male subjects, 42% and 5% of the dose was recovered as unchanged atogepant in feces and urine, respectively.

[7] = target: CYP2C19 (Homo sapiens, UniProt P33261); assay: In vitro CYP inhibition; format: in vitro ADME; details: clinically relevant concentrations
Sequence of CYP2C19 (P33261 whole entry): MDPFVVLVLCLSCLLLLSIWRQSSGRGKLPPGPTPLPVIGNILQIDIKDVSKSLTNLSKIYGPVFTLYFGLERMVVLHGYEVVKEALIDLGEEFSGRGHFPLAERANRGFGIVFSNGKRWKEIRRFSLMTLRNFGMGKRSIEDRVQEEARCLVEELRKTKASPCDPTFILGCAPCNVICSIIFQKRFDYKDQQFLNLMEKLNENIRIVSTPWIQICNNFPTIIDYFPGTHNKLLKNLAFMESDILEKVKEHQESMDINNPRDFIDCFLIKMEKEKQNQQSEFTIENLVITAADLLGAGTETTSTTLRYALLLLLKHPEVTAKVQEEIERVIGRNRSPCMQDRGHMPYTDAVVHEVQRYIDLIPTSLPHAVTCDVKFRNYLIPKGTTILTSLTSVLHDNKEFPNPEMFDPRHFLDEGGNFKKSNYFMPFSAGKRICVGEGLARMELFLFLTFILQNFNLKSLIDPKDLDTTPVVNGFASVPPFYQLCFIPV

[8] = target: MAO-A (Homo sapiens, UniProt P21397); assay: Enzyme inhibition; format: in vitro ADME; details: clinically relevant concentrations
Sequence of MAO-A (P21397 whole entry): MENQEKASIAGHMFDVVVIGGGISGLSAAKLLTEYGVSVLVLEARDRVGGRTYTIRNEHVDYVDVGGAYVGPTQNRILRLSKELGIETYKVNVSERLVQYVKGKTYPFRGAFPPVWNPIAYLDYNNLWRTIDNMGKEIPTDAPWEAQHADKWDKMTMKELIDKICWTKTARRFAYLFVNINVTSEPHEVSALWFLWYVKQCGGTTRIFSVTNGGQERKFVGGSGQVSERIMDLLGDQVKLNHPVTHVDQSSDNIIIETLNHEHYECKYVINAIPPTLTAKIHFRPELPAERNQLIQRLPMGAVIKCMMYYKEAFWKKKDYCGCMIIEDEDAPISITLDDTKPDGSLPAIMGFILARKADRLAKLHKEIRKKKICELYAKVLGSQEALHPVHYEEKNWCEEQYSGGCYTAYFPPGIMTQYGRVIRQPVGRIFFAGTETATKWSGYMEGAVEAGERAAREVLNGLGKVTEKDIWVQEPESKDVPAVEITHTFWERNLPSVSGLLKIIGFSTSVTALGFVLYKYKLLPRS

[9] = target: BSEP (Homo sapiens, UniProt O95342); assay: Transporter inhibition; format: in vitro ADME; details: clinically relevant concentrations
Sequence of BSEP (O95342 whole entry): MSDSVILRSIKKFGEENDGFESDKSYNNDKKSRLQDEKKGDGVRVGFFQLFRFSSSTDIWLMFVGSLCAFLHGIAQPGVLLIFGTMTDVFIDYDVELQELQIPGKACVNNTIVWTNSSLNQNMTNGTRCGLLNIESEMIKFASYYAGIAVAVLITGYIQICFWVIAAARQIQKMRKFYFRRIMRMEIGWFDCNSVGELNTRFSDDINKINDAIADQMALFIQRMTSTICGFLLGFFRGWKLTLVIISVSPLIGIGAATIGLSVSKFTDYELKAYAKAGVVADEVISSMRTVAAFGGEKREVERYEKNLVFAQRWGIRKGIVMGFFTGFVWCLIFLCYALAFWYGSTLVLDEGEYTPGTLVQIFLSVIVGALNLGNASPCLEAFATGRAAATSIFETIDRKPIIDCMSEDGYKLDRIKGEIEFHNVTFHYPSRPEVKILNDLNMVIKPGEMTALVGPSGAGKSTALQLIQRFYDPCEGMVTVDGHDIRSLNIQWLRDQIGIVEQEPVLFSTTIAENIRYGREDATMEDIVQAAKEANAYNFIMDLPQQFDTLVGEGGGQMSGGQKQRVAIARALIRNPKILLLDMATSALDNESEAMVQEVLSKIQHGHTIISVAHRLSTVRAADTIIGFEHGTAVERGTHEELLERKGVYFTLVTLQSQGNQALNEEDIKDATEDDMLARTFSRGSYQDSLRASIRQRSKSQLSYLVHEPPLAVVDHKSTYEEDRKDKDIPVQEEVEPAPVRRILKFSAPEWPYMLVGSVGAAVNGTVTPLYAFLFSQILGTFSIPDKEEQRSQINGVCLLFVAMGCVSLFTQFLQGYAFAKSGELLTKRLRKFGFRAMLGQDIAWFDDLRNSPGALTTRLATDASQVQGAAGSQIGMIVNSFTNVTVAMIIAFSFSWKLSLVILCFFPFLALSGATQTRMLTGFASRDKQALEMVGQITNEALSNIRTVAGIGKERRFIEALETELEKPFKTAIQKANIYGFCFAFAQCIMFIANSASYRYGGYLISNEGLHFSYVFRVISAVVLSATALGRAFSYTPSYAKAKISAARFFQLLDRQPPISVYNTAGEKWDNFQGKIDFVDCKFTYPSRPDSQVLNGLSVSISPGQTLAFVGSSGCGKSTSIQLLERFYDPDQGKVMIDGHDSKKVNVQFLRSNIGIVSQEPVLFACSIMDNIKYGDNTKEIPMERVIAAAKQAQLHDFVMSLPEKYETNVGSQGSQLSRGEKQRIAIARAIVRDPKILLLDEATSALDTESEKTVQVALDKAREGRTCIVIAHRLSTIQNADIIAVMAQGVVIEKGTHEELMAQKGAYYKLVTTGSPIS

[10] = target: MATE 1 (Homo sapiens, UniProt Q96FL8); assay: Transporter inhibition; format: in vitro ADME
Sequence of MATE 1 (Q96FL8 whole entry): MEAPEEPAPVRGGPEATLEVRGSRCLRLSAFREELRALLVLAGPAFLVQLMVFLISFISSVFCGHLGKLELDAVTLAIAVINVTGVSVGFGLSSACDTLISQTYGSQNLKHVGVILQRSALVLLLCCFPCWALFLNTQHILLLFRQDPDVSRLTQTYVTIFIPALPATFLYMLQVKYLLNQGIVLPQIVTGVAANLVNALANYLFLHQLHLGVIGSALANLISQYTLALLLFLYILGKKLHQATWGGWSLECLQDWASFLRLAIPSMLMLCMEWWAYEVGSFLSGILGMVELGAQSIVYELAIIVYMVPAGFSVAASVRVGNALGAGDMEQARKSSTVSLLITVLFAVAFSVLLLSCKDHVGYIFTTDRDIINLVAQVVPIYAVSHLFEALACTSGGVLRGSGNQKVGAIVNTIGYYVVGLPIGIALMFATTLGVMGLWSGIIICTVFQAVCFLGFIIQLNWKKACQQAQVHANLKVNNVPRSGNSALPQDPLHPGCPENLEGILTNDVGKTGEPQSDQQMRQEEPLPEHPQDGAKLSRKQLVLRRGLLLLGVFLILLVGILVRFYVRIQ

[11] = target: CYP3A4 (Homo sapiens, UniProt P08684); assay: Elimination by metabolism; format: in vitro ADME
Sequence of CYP3A4 (P08684 whole entry): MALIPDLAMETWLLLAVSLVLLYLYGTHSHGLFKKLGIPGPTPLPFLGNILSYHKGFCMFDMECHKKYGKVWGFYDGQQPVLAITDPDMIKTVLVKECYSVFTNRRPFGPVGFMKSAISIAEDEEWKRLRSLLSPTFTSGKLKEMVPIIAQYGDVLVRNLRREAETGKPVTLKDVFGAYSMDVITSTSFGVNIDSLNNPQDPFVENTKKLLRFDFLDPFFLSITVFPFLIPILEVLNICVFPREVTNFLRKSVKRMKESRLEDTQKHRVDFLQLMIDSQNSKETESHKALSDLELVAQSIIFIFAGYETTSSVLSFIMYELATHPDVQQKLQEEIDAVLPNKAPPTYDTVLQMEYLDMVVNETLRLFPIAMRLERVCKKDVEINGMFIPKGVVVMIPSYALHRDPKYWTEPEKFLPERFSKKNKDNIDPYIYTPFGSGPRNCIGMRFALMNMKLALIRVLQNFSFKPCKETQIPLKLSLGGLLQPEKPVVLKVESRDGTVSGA

C[C@@H]1[C@H](c2c(F)ccc(F)c2F)C[C@H](NC(=O)c2cnc3c(c2)C[C@@]2(C3)C(=O)Nc3ncccc32)C(=O)N1CC(F)(F)F [atogepant, (3′S)-N-[(3S,5S,6R)-6-methyl-2-oxo-1-(2,2,2-trifluoroethyl)-5-(2,3,6-trifluorophenyl)piperidin-3-yl]-2′-oxo-1′,2′,5,7-tetrahydrospiro[cyclopenta[b]pyridine-6,3′-pyrrolo[2,3-b]pyridine]-3-carboxamide]
subjects experiencing dizziness (TEAE) ([1]; atogepant alone): 2 subjects
tolerability ([1]; each treatment (atogepant alone, itraconazole, combination)): well-tolerated
fraction unbound at 2 h ([2]; mild-impaired): 0.026
fraction unbound at 2 h ([2]; moderate-impaired): 0.029
fraction unbound at 2 h ([2]; normal hepatic function): 0.018
fraction unbound at 2 h ([2]; severe-impaired): 0.047
fraction unbound ([3]; mild-impaired): 0.0297
fraction unbound ([3]; moderate-impaired): 0.034
fraction unbound ([3]; normal hepatic function): 0.0211
fraction unbound ([3]; severe-impaired): 0.0552
plasma protein binding, percent bound ([3]; mild-impaired): 97.36 ± 0.70%
plasma protein binding, percent bound ([3]; moderate-impaired): 97.05 ± 0.62%
plasma protein binding, percent bound ([3]; normal hepatic function): 98.21 ± 0.46%
plasma protein binding, percent bound ([3]; severe-impaired): 95.34 ± 0.85%
Deaths, % ([4]; cohort 1, atogepant + topiramate (n = 26)): (0) %
Deaths, % ([4]; cohort 1, atogepant alone (n = 28)): (0) %
TEAEs leading to discontinuation, % ([4]; human, in vivo): (17.9)^a %
TESAEs, % ([4]; human, in vivo): (0) %
Treatment-related TEAEs, % ([4]; human, in vivo): (39.3) %
Treatment-related TESAEs, % ([4]; human, in vivo): (0) %
constipation reported ([4]; human, in vivo): 3 participants
nausea reported ([4]; human, in vivo): 6 participants
TEAEs, % ([4]; human, in vivo, 7 days): (71.4) %
mean apparent oral clearance (CL/F) ([5]; human, in vivo, po): approximately 19 L/hr
half-life ([5]; human, plasma, oral, read-out: elimination half-life (converted)): ~660 min
Vd/F ([5]; human, plasma, after oral administration, read-out: mean apparent volume distribution (Vz/F)): ~282 L
accumulation ([5]; once daily dosing): no accumulation
dose proportionality ([5]; once daily dosing): dose-proportional pharmacokinetics up to 170 mg
dose recovered as unchanged atogepant in feces [6]: 42%
dose recovered as unchanged atogepant in urine [6]: 5%
inhibition of CYP2C19 [7]: not an inhibitor
inhibition of MAO-A [8]: does not inhibit
inhibition of BSEP [9]: not an inhibitor
inhibition of MATE 1 [10]: weak inhibitor
route of elimination (metabolism) [11]: primarily by CYP3A4
